“Also recorded” adds a separate entry of the source.
Experiments:
[1] = system: PEEC/hepoxilin A3 secretion; assay: Apical PEEC/hepoxilin A3 release from S. typhimurium infected T84 cell monolayers; assay type: cell-based, human; settings: S. typhimurium infected T84 with 12-LO inhibitor
Text: T84 cell monolayers were infected with S. typhimurium in the absence or presence of the 12-LO enzyme inhibitor and apical supernatants were examined for PEEC bioactivity. […] Moreover, since it had been previously shown that S. typhimurium via its effector SipA initiates an ARF6-dependent lipid-signaling cascade that directs the activation of PKC and release of PEEC, it was further examined if blocking PKC activity (which would occur upstream of 12-LO) also corresponds with a reduction in hepoxilin A3 bioactivity and release, as one would predict.

hepoxilin A3 secretion = assay: Hepoxilin A3 release from P. aeruginosa infected A549 cell monolayers; assay type: cell-based, human; settings: A549 treated with inhibitor prior to P. aeruginosa infection; listed as 12-LO inhibitor
Text: It was further determined whether similar hepoxilin A3 recruitment of PMN by apically attached pathogens might occur at other mucosal surfaces. Pseudomonas aeruginosa is the most prominent bacterial spp. present during chronic infection in cystic fibrosis and chronic obstructive pulmonary disease patients and is accompanied by severe inflammation, including the emigration of PMN to the airway lumen (Pizurki et al., 2000; Jahn et al., 2000; Weiss, S. 1989). As a model for the airway epithelium the A549 cell line was used. This cell line is capable of forming a polarized barrier, and is widely employed as a model for the airway epithelial surface (Smart and Casale, 1994). […] Finally, the secretion of hepoxlin A3 in vitro was quantified using this A549 model system. For these experiments, A549 lung epithelial cells (ATTC) were grown in F12K media (Invitrogen) with 10% FBS, and maintained in culture similar to the T84 cell line. The wild type P. aeruginosa (PAO1) was used for infection of A549 after overnight aerobic growth (Luria broth) at 37° C.
The apical compartment of A549 cell monolayers treated for 90 minutes with P. aeruginosa had approximately 210 pmoles in the apical compartment and nearly 130 pmoles in the basolateral compartment. […]

IL-8 production = assay: IL-8 produced in S. typhimurium-infected intestinal xenografts; assay type: in vivo, human; settings: S. typhimurium-infected xenografts in the presence of baicalein
Description: Further, the effect of baicalein on S. typhimurium pathology in human intestinal xenografts was determined (Savidge et al., 1995) (FIG. 7). The human fetal intestinal xenograft model used in the present study has been previously described in detail (Savidge et al., 1995). Briefly, human fetal small intestine (n=3, gestational age 10-14weeks) was transplanted subcutaneously into C.B-17 severe-combined immunodeficient (SCID) mice. Xenografts were allowed to develop for a period between 10-20 weeks before use at which time the epithelium and underlying mucosa is fully differentiated (Savidge et al., 1995). Xenografts were infected with approximately 5×10^7 wild type S. typhimurium SL1344 in sterile HBSS(+) buffer in a 100 μl volume injected intralumenally by subcutaneous injection. […]
It was further confirmed that treatment of the intestinal xenografts with baicalein inhibited the 12-LO pathway by measuring the amount of 12-S-HETE, a major 12-LO metabolite, released into the lumenal fluid. […] Finally, it was determined that there was no statistical difference in the amount IL-8 produced in the S. typhimurium-infected intestinal xenografts in the absence compared to the presence of baicalein treatment (200±53 pg/mg compared to 225±30 pg/mg, respectively, verses 52±11 pg/mg for uninfected control). […]

[2] = system: intestinal inflammation (rectal prolapse); assay: Intestinal inflammation in SCID mice induced by CD45RBHI T cell transfer; assay type: in vivo
Description: The therapeutic benefits of baicalein on subsiding intestinal inflammation, which was induced in SCID mice by i.v. injection of CD4+ CD45RB HI T cells, was examined. For these experiments, spleens were collected from 6-12 week old donor mice (BALB/c) and splenocytes were isolated by mechanical homogenization of whole spleens. The CD4+ T cells were selected by positive selection. In brief, a cell suspension of pooled splenocytes from 4-5 donor mice was incubated with anti-CD4 (L3T4) antibody coated magnetic beads (DYNABEADS: Catalog # 114.05, Dynal, Lake Success, N.Y.) for 20-30 minutes at 4° C. and separated by magnetic cell sorting with a Dynal Magnetic Particle Concentrator (MPC). Cells were removed from the cell-bead complex with Dynal DETACHaBEAD, and isolated from beads using a Dynal MPC. The resulting CD4+ enriched population was >90% pure. The cell suspension was then incubated with Fc block (anti-CD32, PharMingen, 01241A) and labeled with anti-CD4-FITC (PharMingen, 9004D) and anti-CD45RB-PE (PharMingen, 01145A), for 30 minutes at 4° C. washed, and sorted using a FACSTAR (Becton Dickinson, San Jose, Calif.) cell sorter. Double positive cells (CD4+/CD45Rb+) were collected, selecting the cells that expressed high levels of CD45Rb (brightest 45%). The collected cell population was >90% pure and viable. Cells were then washed in cold […] buffered saline (PBS Sigma D8662) and resuspended in PBS. Balb/c SCID mice, aged 6-12 weeks, were injected intravenously with CD45RBHI Tcells in the tail vein.
Ten weeks post CD45RBHI T cell transfer, roughly 30% of SCID mice developed intestinal inflammation, characterized by mucin depletion, goblet cell loss, epithelial hyperplasia and finally rectal prolapse (FIG. 8). These mice were divided equally among treatment groups The first treatment group received buffer control alone (sterile Hanks Balanced Salts Solution (“HBSS”)) and the second and the third treatment groups received low (2 μM) and high (200 μM) doses of baicalein i.v., respectively, every other day along with a vehicle control. […]

MRP-2 = MRP-2 expression in large bowel of CD45Rbhi T cell transferred mice; assay type: in vivo; settings: sick mice after treatment, FIG. 11C
Description: The upper third of the large bowel from these mice were excised, and fixed in OCT. Slides from these tissues were prepared and fluorescently probed for MRP-2 expression. […] Thus, in the efflux pathway for hepoxilin A3, MRP-2 is in fact activated during the disease phase and suppressed upon baicalein treatment

In the case of `O=c1cc(-c2ccccc2)oc2cc(O)c(O)c(O)c12` [baicalein], the “PEEC secretion (bioactivity of apical supernatants)” value [1] is reported as “significant decrease in PEEC secretion; also recorded: dramatically reduced”, the “hepoxilin A3 levels released” value (hepoxilin A3 secretion) is reported as “no detectable levels of hepoxilin A3” and the IL-8 produced (IL-8 production) is reported as 225 ± 30 pg/mg. The rectal prolapse ([2]; high dose 200 μM i.v. every other day, 2.5 weeks) was “complete recovery of rectal prolapse”, the “health status and rectal prolapse” value ([2]; low dose 2 μM i.v. every other day, 2.5 weeks) was “no improvement of their health status and rectal prolapse” and the “illness (rectal prolapse, diarrhea, weight loss)” value ([2]; therapeutic regimen, after 2 weeks) was “resolved the illness”. For the same molecule, the “MRP-2 expression at apical surface of intestinal epithelium” value (MRP-2) was “completely suppressed”.

From patent publication US20040265323A1, “Compositions comprising pathogen elicited epithelial chemoattractant (eicosanoid hepoxilin A3), inhibitors thereof and methods of use thereof” (priority 2003, published 2004)
